Laboratory results taken from EP0241573A1, “Topical agents for inhibiting the melanin generation” (Sansho Seiyaku Co., Ltd., priority 1986, dated 1987).

Columns and labels:
[1] = according to WHO; cited from earlier work
[2] = biological target: T1, tyrosinase from a B16 cell homogenate (Mus musculus, UniProt P11344); assay: B16 cell-derived tyrosinase activity inhibition (absorbance increase at 475 nm); assay type: biochemical; conditions: aqueous solutions 0.1, 0.05 and 0.03 µl/ml; 10 mM dopa, pH 6.8, 37°C, 0.15 minutes
T1 construct: 0.1 ml of a 11000 G supernatant of a B16 cell homogenate; endogenous in cells; host or cells: B16 mouse melanoma cells (11000 G supernatant of homogenate)
T1 sequence (P11344 19-533): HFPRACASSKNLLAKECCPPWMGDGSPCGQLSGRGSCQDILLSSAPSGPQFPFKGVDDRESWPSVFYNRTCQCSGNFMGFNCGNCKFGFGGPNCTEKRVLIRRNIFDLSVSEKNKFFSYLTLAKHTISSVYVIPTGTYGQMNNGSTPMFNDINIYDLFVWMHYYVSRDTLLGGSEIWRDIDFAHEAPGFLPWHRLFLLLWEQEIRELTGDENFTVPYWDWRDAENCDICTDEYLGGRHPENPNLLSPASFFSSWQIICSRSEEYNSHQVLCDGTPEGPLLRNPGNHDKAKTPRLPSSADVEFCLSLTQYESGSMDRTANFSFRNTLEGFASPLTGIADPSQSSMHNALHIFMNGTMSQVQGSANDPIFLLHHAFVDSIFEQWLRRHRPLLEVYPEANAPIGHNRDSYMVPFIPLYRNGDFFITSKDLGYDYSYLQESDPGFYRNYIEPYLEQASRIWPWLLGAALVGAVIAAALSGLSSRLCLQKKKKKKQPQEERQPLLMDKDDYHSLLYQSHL
Description: Fig. 2 is a figure showing the test results of the tyrosinase activity inhibition by vitamin E solutions on tyrosinase from a B16 cell homogenate. In the figure, -▲-, -●- ,-x- and -o- have the same significance as in Fig. 1.
b. Test on the B16 cell-derived tyrosinase Activity Inhibition
Samples were prepared respectively by adding 1.0 ml of aqueous solutions containing vitamin E at concentrations of 0.1 µl/ml, 0.05 µl/ml and 0.03 µl/ml prepared in the production examples described hereinbelow to 0.1 ml of a 11000 G supernatant of a B16 cell homogenate, 1.0 ml of a 10 mM dopa and 0.9 ml of a 0.1 M phosphate buffer (pH 6.8), also a solution containing no vitamin E was prepared as a control, and the increase in absorbance at 475 nm at 37°C for […] was measured.

[3] = test system: B16 cells derived from the mouse melanoma; assay: Test on B16 cultured cells derived from mouse melanoma: degree of melanin generation (blackening/whitening) observed by the naked eye; assay type: cell-based; parameters: key: -: Not whitened at all; +: Slightly whitened; +: Considerably whitened; ++: Whitening clearly descernible; +++: Whitening proceeded to such degree that blackening cannot be observed; conditions: culture 5 days at 37°C
Description: I. Test on B16 Cultured Cells Derived from Mouse Melanoma (Testing Method)
Aqueous solution of vitamin E was added 30 µg/ml, 20 µg/ml, 10 µg/ml and 2 µg/ml respectively in final concentration to the culture medium for B16 cells derived from the mouse melanoma. After culture period for 5 days at 37°C, the degree of melanin generation (degree of blackening) was observed by the naked eyes.

mashroom tyrosinase = assay: Mushroom-derived tyrosinase activity inhibition (absorbance increase at 475 nm); assay type: biochemical; conditions: aqueous solutions 0.1, 0.05 and 0.03 µl/ml; tyrosine substrate, pH 6.8, 37°C, 0-15 minutes
Description: Fig. 1 is a figure showing the test results of the tyrosinase activity inhibition by vitamin E solutions on mashroom tyrosinase. In the figure, -▲- stands for the absorbance at 475 nm of an aqueous solution of a concentration of vitamin E of 0.1 µl/ml, -●- for an aqueous solution of concentration of vitamin E of 0.05 µl/ml, -x- for an aqueous solution of a concentration of vitamin E of 0.03 µl/ml and -o- for an aqueous solution containing no vitamin E (control).
a. Test on the Mashroom-derived Tyrosinase Activity Inhibition
Samples were prepared by adding 1.0 ml of aqueous solutions containing vitamin E at concentrations of 0.1 µl/ml, 0.05 µl/ml and 0.03 µl/ml respectively to 1.0 ml of a tyrosine solution (0.3 mg/ml), 0.9 ml of a 0.1 M phosphate buffer (pH 6.8) and 0.1 ml of mashroom tyrosinase (400 U/ml), also a solution containing no vitamin E was prepared as a control, and the increase in absorbance at 475 nm at 37°C for 0-15 minutes was measured.

## vitamin E
[1]
  acute toxicity: no acute toxicity
[2]
  effect to inhibit the B16 cell tyrosinase: not observed
[3]; 10 µg/ml final concentration
  Degree of Whitening: +
[3]; 20 µg/ml final concentration
  Degree of Whitening: ++
[3]; 30 µg/ml final concentration
  Degree of Whitening: +++
Mashroom tyrosinase
  effect to inhibit the mashroom tyrosinase: not observed
